Assay results: patent US8173145B2, “Formulation containing phosphate derivatives of electron transfer agents” (Vital Health Sciences Pty. Ltd., priority 2000, dated 2012)

Assay: foam stability / surface active properties test
Assay type: physicochemical
Conditions: 0.1 g in 10 ml distilled water, shaken; foam examined daily over four days
Procedure: 0.1 g of pure di-sodium mono-tocopheryl phosphate was dissolved in 10 ml of pure distilled water in a 50 ml cylindrical stoppered vessel.

Foam stability: complete stability for one day
Structure (SMILES): Cc1c(C)c2c(c(C)c1OP(=O)([O-])[O-])CC[C@@](C)(CCC[C@H](C)CCC[C@H](C)CCCC(C)C)O2.[Na+].[Na+] [di-sodium mono-tocopheryl phosphate]
